Source: ChEMBL document CHEMBL1201862, “PubChem BioAssay data set” (2004)
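Values below derive from 48-hour exposures of cells grown in 96-well plates, with endpoints linearly interpolated between the two concentrations bracketing the appropriate inhibition level. Abbreviation: GI50, concentration required for 50% inhibition of growth.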 The source made the active and inactive calls. Cut-off read from the data, not from the text of the source: active = GI50 up to about 1.1 µM and inactive = higher.

Legend:
Assay in all cases: inhibition of tumour cell growth, NCI panel, 48 h
786-0 = tested on: 786-0
A498 = tested on: A498
A549 = tested on: A549
ACHN = tested on: ACHN
CCRF-CEM = tested on: CCRF-CEM
COLO 205 = tested on: COLO 205
DLD-1 = tested on: DLD-1
DMS-114 = tested on: DMS-114
DMS-273 = tested on: DMS-273
EKVX = tested on: EKVX
HCC 2998 = tested on: HCC 2998
HCT-116 = tested on: HCT-116
HCT-15 = tested on: HCT-15
HL-60 = tested on: HL-60
HOP-18 = tested on: HOP-18
HOP-62 = tested on: HOP-62
HT-29 = tested on: HT-29
IGROV-1 = tested on: IGROV-1
K562 = tested on: K562
KM-20L2 = tested on: KM-20L2
KM12 = tested on: KM12
LOX IMVI = tested on: LOX IMVI
LXFL 529 = tested on: LXFL 529
M14 = tested on: M14
M19-MEL = tested on: M19-MEL
MOLT-4 = tested on: MOLT-4
Malme-3M = tested on: Malme-3M
NCI-H226 = tested on: NCI-H226
NCI-H23 = tested on: NCI-H23
NCI-H460 = tested on: NCI-H460
NCI-H522 = tested on: NCI-H522
OVCAR-3 = tested on: OVCAR-3
OVCAR-4 = tested on: OVCAR-4
OVCAR-5 = tested on: OVCAR-5
OVCAR-8 = tested on: OVCAR-8
RXF 393 = tested on: RXF 393
SF-268 = tested on: SF-268
SF-539 = tested on: SF-539
SK-MEL-28 = tested on: SK-MEL-28
SK-MEL-2 = tested on: SK-MEL-2
SK-MEL-5 = tested on: SK-MEL-5
SK-OV-3 = tested on: SK-OV-3
SN12C = tested on: SN12C
SNB-19 = tested on: SNB-19
SNB-75 = tested on: SNB-75
SNB-78 = tested on: SNB-78
SR = tested on: SR
SW-620 = tested on: SW-620
TK-10 = tested on: TK-10
U-251 = tested on: U-251
UACC-257 = tested on: UACC-257
UACC-62 = tested on: UACC-62
UO-31 = tested on: UO-31
HOP-92 = tested on: HOP-92
RPMI-8226 = tested on: RPMI-8226
SF-295 = tested on: SF-295

SMILES: CCN(CC)C(=O)N1CCN(C=S)CC1
- GI50 (786-0): > 100 µM (inactive)
- GI50 (A498): > 100 µM (inactive)
- GI50 (A549): > 100 µM (inactive)
- GI50 (ACHN): > 100 µM (inactive)
- GI50 (CCRF-CEM): > 100 µM (inactive)
- GI50 (COLO 205): > 100 µM (inactive)
- GI50 (DLD-1): > 100 µM (inactive)
- GI50 (DMS-114): > 100 µM (inactive)
- GI50 (DMS-273): > 100 µM (inactive)
- GI50 (EKVX): > 100 µM (inactive)
- GI50 (HCC 2998): > 100 µM (inactive)
- GI50 (HCT-116): > 100 µM (inactive)
- GI50 (HCT-15): > 100 µM
- GI50 (HL-60): > 100 µM (inactive)
- GI50 (HOP-18): > 100 µM (inactive)
- GI50 (HOP-62): > 100 µM (inactive)
- GI50 (HT-29): > 100 µM (inactive)
- GI50 (IGROV-1): > 100 µM (inactive)
- GI50 (K562): > 100 µM (inactive)
- GI50 (KM-20L2): > 100 µM (inactive)
- GI50 (KM12): > 100 µM (inactive)
- GI50 (LOX IMVI): > 100 µM (inactive)
- GI50 (LXFL 529): > 100 µM (inactive)
- GI50 (M14): > 100 µM (inactive)
- GI50 (M19-MEL): > 100 µM (inactive)
- GI50 (MOLT-4): > 100 µM (inactive)
- GI50 (Malme-3M): > 100 µM (inactive)
- GI50 (NCI-H226): > 100 µM (inactive)
- GI50 (NCI-H23): > 100 µM (inactive)
- GI50 (NCI-H460): > 100 µM (inactive)
- GI50 (NCI-H522): > 100 µM (inactive)
- GI50 (OVCAR-3): > 100 µM (inactive)
- GI50 (OVCAR-4): > 100 µM (inactive)
- GI50 (OVCAR-5): > 100 µM (inactive)
- GI50 (OVCAR-8): > 100 µM (inactive)
- GI50 (RXF 393): > 100 µM (inactive)
- GI50 (SF-268): > 100 µM (inactive)
- GI50 (SF-539): > 100 µM (inactive)
- GI50 (SK-MEL-28): > 100 µM (inactive)
- GI50 (SK-MEL-2): > 100 µM (inactive)
- GI50 (SK-MEL-5): > 100 µM (inactive)
- GI50 (SK-OV-3): > 100 µM (inactive)
- GI50 (SN12C): > 100 µM (inactive)
- GI50 (SNB-19): > 100 µM (inactive)
- GI50 (SNB-75): > 100 µM (inactive)
- GI50 (SNB-78): > 100 µM (inactive)
- GI50 (SR): > 100 µM (inactive)
- GI50 (SW-620): > 100 µM (inactive)
- GI50 (TK-10): > 100 µM (inactive)
- GI50 (U-251): > 100 µM (inactive)
- GI50 (UACC-257): > 100 µM (inactive)
- GI50 (UACC-62): > 100 µM (inactive)
- GI50 (UO-31): > 100 µM (inactive)

SMILES: Cc1cc(O)nc(CNC(=O)c2cccc(C(=O)NCc3cc(O)nc(C)n3)c2)n1
- GI50 (786-0): > 100 µM (inactive)
- GI50 (A498): > 100 µM (inactive)
- GI50 (A549): > 100 µM (inactive)
- GI50 (ACHN): > 100 µM (inactive)
- GI50 (CCRF-CEM): > 100 µM (inactive)
- GI50 (COLO 205): > 100 µM (inactive)
- GI50 (DLD-1): > 100 µM (inactive)
- GI50 (DMS-114): > 100 µM (inactive)
- GI50 (DMS-273): > 100 µM (inactive)
- GI50 (EKVX): > 100 µM (inactive)
- GI50 (HCC 2998): > 100 µM (inactive)
- GI50 (HCT-116): > 100 µM (inactive)
- GI50 (HCT-15): > 100 µM
- GI50 (HL-60): > 100 µM (inactive)
- GI50 (HOP-18): 68.5 µM (inactive)
- GI50 (HOP-62): > 100 µM (inactive)
- GI50 (HOP-92): > 100 µM (inactive)
- GI50 (HT-29): > 100 µM (inactive)
- GI50 (IGROV-1): > 100 µM (inactive)
- GI50 (K562): > 100 µM (inactive)
- GI50 (KM-20L2): > 100 µM (inactive)
- GI50 (KM12): > 100 µM (inactive)
- GI50 (LOX IMVI): > 100 µM (inactive)
- GI50 (LXFL 529): > 100 µM (inactive)
- GI50 (M14): > 100 µM (inactive)
- GI50 (M19-MEL): > 100 µM (inactive)
- GI50 (MOLT-4): > 100 µM (inactive)
- GI50 (Malme-3M): > 100 µM (inactive)
- GI50 (NCI-H226): > 100 µM (inactive)
- GI50 (NCI-H23): > 100 µM (inactive)
- GI50 (NCI-H460): > 100 µM (inactive)
- GI50 (NCI-H522): > 100 µM (inactive)
- GI50 (OVCAR-3): > 100 µM (inactive)
- GI50 (OVCAR-4): > 100 µM (inactive)
- GI50 (OVCAR-5): > 100 µM (inactive)
- GI50 (OVCAR-8): > 100 µM (inactive)
- GI50 (RPMI-8226): > 100 µM (inactive)
- GI50 (RXF 393): > 100 µM (inactive)
- GI50 (SF-268): > 100 µM (inactive)
- GI50 (SF-295): > 100 µM (inactive)
- GI50 (SF-539): > 100 µM (inactive)
- GI50 (SK-MEL-28): > 100 µM (inactive)
- GI50 (SK-MEL-2): > 100 µM (inactive)
- GI50 (SK-MEL-5): > 100 µM (inactive)
- GI50 (SK-OV-3): > 100 µM (inactive)
- GI50 (SN12C): > 100 µM (inactive)
- GI50 (SNB-19): > 100 µM (inactive)
- GI50 (SNB-75): > 100 µM (inactive)
- GI50 (SNB-78): > 100 µM (inactive)
- GI50 (SW-620): > 100 µM (inactive)
- GI50 (TK-10): > 100 µM (inactive)
- GI50 (U-251): > 100 µM (inactive)
- GI50 (UACC-257): > 100 µM (inactive)
- GI50 (UACC-62): > 100 µM (inactive)
- GI50 (UO-31): > 100 µM (inactive)
